Experimental findings from patent US20130165475A1, “DEUTERIUM-ENRICHED HETEROCYCLIC COMPOUNDS AS KINASE INHIBITORS” (ASCEPION PHARMACEUTICALS, INC., priority 2010, published 2013) are described below.

For one assay, the target named is T1, EphB4 (Homo sapiens, UniProt P54760).
T1 construct: EphB4 autophosphorylation in PC-3 human prostate cancer cells; host or cells: PC-3 human prostate cancer cells
T1 sequence (P54760 16-987): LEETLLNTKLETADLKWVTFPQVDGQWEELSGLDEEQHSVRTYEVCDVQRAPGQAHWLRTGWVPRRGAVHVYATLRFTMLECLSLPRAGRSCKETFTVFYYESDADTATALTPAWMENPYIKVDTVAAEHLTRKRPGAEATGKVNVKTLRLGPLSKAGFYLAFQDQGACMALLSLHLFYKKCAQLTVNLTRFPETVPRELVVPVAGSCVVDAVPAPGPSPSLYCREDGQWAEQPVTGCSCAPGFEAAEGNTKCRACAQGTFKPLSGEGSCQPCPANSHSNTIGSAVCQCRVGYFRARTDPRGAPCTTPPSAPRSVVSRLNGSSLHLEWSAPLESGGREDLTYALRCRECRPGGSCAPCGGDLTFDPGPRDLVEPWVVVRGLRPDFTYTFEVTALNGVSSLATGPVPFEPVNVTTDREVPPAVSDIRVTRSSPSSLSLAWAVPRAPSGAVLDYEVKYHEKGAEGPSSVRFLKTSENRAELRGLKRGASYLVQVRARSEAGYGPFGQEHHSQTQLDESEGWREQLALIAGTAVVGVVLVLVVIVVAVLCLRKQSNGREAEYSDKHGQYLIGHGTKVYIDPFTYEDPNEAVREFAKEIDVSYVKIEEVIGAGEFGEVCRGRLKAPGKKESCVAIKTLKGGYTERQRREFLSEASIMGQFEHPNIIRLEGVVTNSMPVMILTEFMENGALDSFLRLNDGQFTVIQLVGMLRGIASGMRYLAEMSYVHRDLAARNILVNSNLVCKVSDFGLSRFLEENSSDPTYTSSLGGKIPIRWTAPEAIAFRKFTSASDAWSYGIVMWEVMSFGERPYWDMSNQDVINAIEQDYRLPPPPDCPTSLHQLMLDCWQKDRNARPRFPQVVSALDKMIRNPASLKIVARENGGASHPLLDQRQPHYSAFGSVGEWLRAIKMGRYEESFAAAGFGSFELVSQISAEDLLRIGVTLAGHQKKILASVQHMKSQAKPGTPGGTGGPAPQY
Briefly: EphB4 cell-based assay (quantitative Western blotting, PC-3 cells, Ephrin-B2 stimulated). As to conditions: compound at 100 nM; PC-3 human prostate cancer cells; Ephrin-B2 stimulation; read-out: % EphB4 kinase activity remains. The text has this:
A standard image-based quantitative Western blotting assay for EphB4 kinase activity can be used to test or screen the compounds of this invention and to identify EphB4 antagonists.
The kinase activity of EphB4 in cells depends on its autophosphorylation level stimulated by the binding to its ligand Ephrin-B2. High level of EphB4 autophosphorylation in PC-3 human prostate cancer cells (ATCC, USA) induced by the application of Ephrin-B2 to the cell culture can be observed by regular Western blotting assay.
A compound to be tested was first dissolved in DMSO to a concentration of 10 mM and stored at −20° C. On the day of screening procedure, the compound in DMSO was added into DMEM medium to a final concentration of 100 nM. Two hours later, Ephrin-B2 ([…]) was added into DMEM medium to stimulate the production of phosphor-EphB4. The phosphor-EphB4 was detected based on its molecular weight and with anti-phosphor protein antibody PY-20 in cell lysate from approximately 5×10^5 PC-3 cells by Western blotting followed by imaging quantification. The relative level of EphB4 kinase activity was quantified as the ratio between the amount of phosphor-EphB4 and that of total Actin proteins.
On the technique in general: A western blot detects proteins with antibodies after separation by electrophoresis.

In another assay the target is T2, PDGFRβ (Homo sapiens, UniProt P09619).
T2 construct: expressed in transfected cells; host or cells: CHO cells
Nature of the assay: PDGFRβ cell-based assay (ELISA, phosphor-/total PDGFRβ in transfected CHO cells). The note with it: compound at 100 nM; CHO cells transfected with full length PDGFRβ; FBS stimulation; read-out: % PDGFRβ kinase activity remains. An excerpt: A standard cell-based assay for PDGFRβ kinase activity can be used to test or screen the compounds of this invention and to identify PDGFRβ antagonists. In this example, ELISA kits (R&D Systems, Inc., Minneapolis, Minn. 55413, USA) were used.
The activity of PDGFRβ in cells depended on its autophosphorylation level by various factors including growth factors. In order to induce the cell to produce PDGFRβ, full length of PDGFRβ sequence was cloned into PC-DNA3.1 vector, the plasmid was then transfected into CHO cells. After 48 hours, the expression of PDGFRβ in transfected CHO cells was confirmed by regular western blotting.
A compound to be tested was first dissolved in DMSO to a concentration of 10 mM and stored at −20° C. One day before the screening, CHO cells transfected with full length PDGFRβ plasmid were grown in DMEM medium without the presence of serum. On the day of screening procedure, the compounds with various concentration in DMSO (from 0.5 nM to 500 nM) were added into DMEM medium, two hours later, 20% of FBS (Fetal Bovine Serum) was added into the medium to stimulate the production of phosphor-PDGFRβ. Cell lysate from approximately 5×10^5 transfected CHO cells were reacted with anti-phosphor PDGFRβ or anti-total PDGFRβ antibody in 96 well plates, in the presence of detection antibody. The phosphor-PDGFRβ or total PDGFRβ were detected with Streptavidin-HRP (R&D Systems), followed by chemiluminescent detection. The level of PDGFRβ kinase activity was quantified as the ratio between the amount of phosphor- and that of total PDGFRβ proteins.
A general note: In an ELISA, binding on a coated surface is turned into a signal by an enzyme label.

Where a name gives a salt, the structure may show the parent alone.

T2 sequence (P09619 33-1106): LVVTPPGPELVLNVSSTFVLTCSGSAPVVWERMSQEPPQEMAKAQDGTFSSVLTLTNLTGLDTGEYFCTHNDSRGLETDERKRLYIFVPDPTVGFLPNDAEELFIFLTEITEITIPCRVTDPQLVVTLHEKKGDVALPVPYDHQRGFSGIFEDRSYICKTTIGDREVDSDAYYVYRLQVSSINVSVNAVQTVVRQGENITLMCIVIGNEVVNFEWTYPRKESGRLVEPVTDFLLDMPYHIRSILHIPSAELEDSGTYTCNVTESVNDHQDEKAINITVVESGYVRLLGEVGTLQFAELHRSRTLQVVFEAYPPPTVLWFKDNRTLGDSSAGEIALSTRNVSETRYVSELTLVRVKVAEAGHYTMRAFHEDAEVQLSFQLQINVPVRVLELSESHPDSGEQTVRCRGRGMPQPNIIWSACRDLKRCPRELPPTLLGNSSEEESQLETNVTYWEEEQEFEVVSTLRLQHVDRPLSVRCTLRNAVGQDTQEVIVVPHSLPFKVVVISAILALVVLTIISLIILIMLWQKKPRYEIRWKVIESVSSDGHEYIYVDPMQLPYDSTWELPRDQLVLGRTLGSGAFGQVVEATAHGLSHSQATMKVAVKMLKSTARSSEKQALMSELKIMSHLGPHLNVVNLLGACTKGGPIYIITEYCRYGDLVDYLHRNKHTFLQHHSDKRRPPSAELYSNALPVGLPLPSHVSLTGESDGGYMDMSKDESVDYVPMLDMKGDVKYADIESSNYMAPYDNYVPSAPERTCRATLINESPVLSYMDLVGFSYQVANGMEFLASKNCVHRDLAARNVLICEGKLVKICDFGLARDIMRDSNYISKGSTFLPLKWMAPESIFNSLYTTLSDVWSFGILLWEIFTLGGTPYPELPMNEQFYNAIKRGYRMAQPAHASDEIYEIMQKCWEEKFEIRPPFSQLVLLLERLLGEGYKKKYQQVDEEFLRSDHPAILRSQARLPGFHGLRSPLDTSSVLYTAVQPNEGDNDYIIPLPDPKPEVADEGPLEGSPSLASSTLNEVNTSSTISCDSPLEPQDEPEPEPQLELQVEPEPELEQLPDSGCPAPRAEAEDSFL

On to `[2H]C([2H])(c1ccnc(N)c1)N1CCc2c(NC(=O)Nc3cc(Cl)ccc3OC)cccc21` [Example 1, 1-[1-[(2-Amino-4-pyridyl)-dideuteriomethyl]indolin-4-yl]-3-(5-chloro-2-methoxyphenyl)urea], for which the remaining activity at 0.1 µM at EphB4 and on PDGFRβ was below 70% throughout.

For the compound `[2H]C([2H])(c1ccnc2[nH]ccc12)N1CCc2c(NC(=O)Nc3cc(Cl)ccc3F)cccc21` [Example 11, 1-(5-Chloro-2-fluorophenyl)-3-[1-[dideuterio(1H-pyrrolo[2,3-b]pyridin-4-yl)methyl]indolin-4-yl]urea hydrochloride], the remaining activity at 0.1 µM at EphB4 and at PDGFRβ was below 70% each time.

For the compound `[2H]C([2H])([2H])Oc1ccc(Cl)cc1NC(=O)Nc1cccc2c1ccn2C([2H])([2H])c1ccnc(N)c1` [Example 4, 1-[1-[(2-amino-4-pyridyl)-dideuteriomethyl]indol-4-yl]-3-[5-chloro-2-(trideuteriomethoxy)phenyl]urea], the remaining activity at 0.1 µM at EphB4 is below 70%; at PDGFRβ, at least 70%.

For the compound `[2H]C(c1c[nH]c2ncccc12)N1CCc2c(NC(=O)Nc3cc(Cl)ccc3OC)cccc21` (stereo not drawn) [Example 17, 1-(5-Chloro-2-methoxyphenyl)-3-[1-[deuterio(1H-pyrrolo[2,3-b]pyridin-3-yl)methyl]indolin-4-yl]urea], the remaining activity at 0.1 µM at EphB4 and on PDGFRβ was below 70% each time.

As to `[2H]C([2H])(c1ccnc2[nH]ccc12)n1ccc2c(NC(=O)Nc3cc(Cl)ccc3OC)cccc21` [Example 10, 1-(5-chloro-2-methoxyphenyl)-3-[1-[dideuterio(1H-pyrrolo[2,3-b]pyridin-4-yl)methyl]indol-4-yl]urea hydrochloride], the remaining activity at 0.1 µM at EphB4 and on PDGFRβ was at least 70% each time.

Turning to `[2H]C([2H])(c1ccnc2[nH]ccc12)n1ccc2c(NC(=O)Nc3cc(Cl)ccc3F)cccc21` [Example 12, 1-(5-chloro-2-fluorophenyl)-3-[1-[dideuterio(1H-pyrrolo[2,3-b]pyridin-4-yl)methyl]indol-4-yl]urea hydrochloride], the values for the remaining activity at 0.1 µM on EphB4 and on PDGFRβ were below 70% and at least 70%, respectively.

For `[2H]C([2H])(c1ccnc2[nH]ccc12)N1CCc2c(NC(=O)Nc3cccc(C)c3)cccc21` [Example 13, 1-[1-[Dideuterio(1H-pyrrolo[2,3-b]pyridin-4-yl)methyl]indolin-4-yl]-3-(m-tolyl)urea hydrochloride], the remaining activity at 0.1 µM is at least 70% on EphB4 and below 70% on PDGFRβ.

For `[2H]C([2H])(c1ccnc2[nH]ccc12)N1CCc2c(NC(=O)Nc3cc(Cl)ccc3OC)cccc21` [Example 9, 1-(5-Chloro-2-methoxyphenyl)-3-[1-[dideuterio(1H-pyrrolo[2,3-b]pyridin-4-yl)methyl]indolin-4-yl]urea hydrochloride], the remaining activity at 0.1 µM at EphB4 is at least 70%; on PDGFRβ it was below 70%.

With `[2H]C(c1c[nH]c2ncccc12)n1ccc2c(NC(=O)Nc3cc(Cl)ccc3F)cccc21` (stereo not drawn) [Example 20, 1-(5-chloro-2-fluorophenyl)-3-[1-[deuterio(1H-pyrrolo[2,3-b]pyridin-3-yl)methyl]indol-4-yl]urea], the remaining activity at 0.1 µM at EphB4 was at least 70%; at PDGFRβ it was below 70%.

`[2H]C(c1c[nH]c2ncccc12)n1ccc2c(NC(=O)Nc3cccc(C)c3)cccc21` (stereo not drawn) [Example 22, 1-[1-[deuterio(1H-pyrrolo[2,3-b]pyridin-3-yl)methyl]indol-4-yl]-3-(m-tolyl)urea]: the results for the remaining activity at 0.1 µM at EphB4 and at PDGFRβ were at least 70% and below 70%, respectively.

Regarding `[2H]C([2H])(c1ccnc2[nH]ccc12)n1ccc2c(NC(=O)Nc3cccc(C)c3)cccc21` [Example 14, 1-[1-[dideuterio(1H-pyrrolo[2,3-b]pyridin-4-yl)methyl]indol-4-yl]-3-(m-tolyl)urea hydrochloride], the remaining activity at 0.1 µM at EphB4 and at PDGFRβ was below 70% in each case.

As for `[2H]C(c1c[nH]c2ncccc12)n1ccc2c(NC(=O)Nc3cc(Cl)ccc3OC([2H])([2H])[2H])cccc21` (stereo not drawn) [Example 16, 1-[5-chloro-2-(trideuteriomethoxy)phenyl]-3-[1-[deuterio(1H-pyrrolo[2,3-b]pyridin-3-yl)methyl]indol-4-yl]urea], the remaining activity at 0.1 µM at EphB4 and at PDGFRβ was at least 70% each time.

With `[2H]C(c1c[nH]c2ncccc12)N1CCc2c(NC(=O)Nc3cc(Cl)ccc3OC([2H])([2H])[2H])cccc21` (stereo not drawn) [Example 15, 1-[5-Chloro-2-(trideuteriomethoxy)phenyl]-3-[1-[deuterio(1H-pyrrolo[2,3-b]pyridin-3-yl)methyl]indolin-4-yl]urea], the remaining activity at 0.1 µM on EphB4 and at PDGFRβ was at least 70% each time.

Regarding `[2H]C([2H])([2H])Oc1ccc(Cl)cc1NC(=O)Nc1cccc2c1CCN2Cc1ccnc(N)c1` [Example 5, 1-[1-[(2-Amino-4-pyridyl)methyl]indolin-4-yl]-3-[5-chloro-2-(trideuteriomethoxy)phenyl]urea], the remaining activity at 0.1 µM at EphB4 and on PDGFRβ was below 70% each time.

Regarding `[2H]C(c1c[nH]c2ncccc12)N1CCc2c(NC(=O)Nc3cc(Cl)ccc3F)cccc21` (stereo not drawn) [Example 19, 1-(5-Chloro-2-fluorophenyl)-3-[1-[deuterio(1H-pyrrolo[2,3-b]pyridin-3-yl)methyl]indolin-4-yl]urea], the remaining activity at 0.1 µM at EphB4 and at PDGFRβ was at least 70% throughout.

As for `[2H]C([2H])([2H])Oc1ccc(Cl)cc1NC(=O)Nc1cccc2c1CCN2C([2H])([2H])c1ccnc(N)c1` [Example 3, 1-[1-[(2-Amino-4-pyridyl)-dideuteriomethyl]indolin-4-yl]-3-[5-chloro-2-(trideuteriomethoxy)phenyl]urea], the remaining activity at 0.1 µM is below 70% on EphB4 and at least 70% at PDGFRβ.

Take `[2H]C([2H])([2H])Oc1ccc(Cl)cc1NC(=O)Nc1cccc2c1ccn2Cc1ccnc(N)c1` [Example 6, 1-[1-[(2-amino-4-pyridyl)methyl]indol-4-yl]-3-[5-chloro-2-(trideuteriomethoxy)phenyl]urea]: the remaining activity at 0.1 µM at EphB4 and at PDGFRβ was below 70% throughout.

Take `[2H]C(c1c[nH]c2ncccc12)N1CCc2c(NC(=O)Nc3cccc(C)c3)cccc21` (stereo not drawn) [Example 21, 1-[1-[Deuterio(1H-pyrrolo[2,3-b]pyridin-3-yl)methyl]indolin-4-yl]-3-(m-tolyl)urea]: the results for the remaining activity at 0.1 µM at EphB4 and at PDGFRβ were at least 70% and below 70%, respectively.
